Experimental data reported in patent US10465230B2, “Chemiluminescence-based haemostasis assay” (Stichting Katholieke Universiteit, priority 2010, dated 2019).
Counter-ions that a name gives are not always drawn.

Key:
Assay type in all cases: biochemical
thrombin [1] = target: T1, thrombin (Homo sapiens, UniProt P00734); test: Chemiluminescent substrate cleavage by purified thrombin (luciferase/ATP luminescence); conditions: for RLU thrombin: 30 nM thrombin final, instead of plasma, assay as example 1; for RLU thrombin/RLU plasmin: ratio of signal with 30 nM thrombin to signal with 40 nM plasmin
T1 construct: allowing factor Xa to convert prothrombin to thrombin
Method: (§1) In a 96-wells plate (final volume 120 μl), the following components were added:
(§2) 10 μl MeO—(CH2CH2O)2-acetyl-beta-Ala-Gly-Arg-aminoluciferin TFA salt (thrombin specific substrate (10 mM)), or pyroGlu-Phe-Lys-aminoluciferin TFA salt (plasmin specific substrate (10 mM))
(§3) 2 μl Luciferase (Sigma, 72 μg/ml),
(§4) 2 μl ATP (Sigma, 0.33 mM),
(§5) 14 μl TRIS/NaCl buffer (50 mM TRIS and 150 mM NaCl, pH 7.4).
(§6) This reaction mixture was mixed, followed by the addition of 4 μl TRIS/NaCl buffer with Ca^2+ to start thrombin generation. Final concentration 16.7 mM. The resultant was mixed rapidly, and thrombin generation was monitored in a Fluostar. The settings of the Fluostar were: 140 cycli of 30 seconds, Gain: Maximum=4095. Prior to measurement, 25 μl reaction mixture was taken from the well having a total volume of 120 μl. This was pipetted in a 384-well multi-titre plate suitable for measuring luminescence. The measurement was started immediately. Luminescence is depicted in Relative luminescence units (RLU).
Various substrates were analyzed using thrombin and plasmin The assay was essentially performed as described in example 1. However, instead of plasma, plasmin or thrombin were added to final concentrations of 30 nM (thrombin) or 40 nM (plasmin).

plasmin = plasmin (Homo sapiens, UniProt P00747); test: Chemiluminescent substrate cleavage by purified plasmin (luciferase/ATP luminescence); conditions: for RLU plasmin: 40 nM plasmin final, instead of plasma, assay as example 1
Chain of plasmin (P00747 581-810 limits assumed, species assumed): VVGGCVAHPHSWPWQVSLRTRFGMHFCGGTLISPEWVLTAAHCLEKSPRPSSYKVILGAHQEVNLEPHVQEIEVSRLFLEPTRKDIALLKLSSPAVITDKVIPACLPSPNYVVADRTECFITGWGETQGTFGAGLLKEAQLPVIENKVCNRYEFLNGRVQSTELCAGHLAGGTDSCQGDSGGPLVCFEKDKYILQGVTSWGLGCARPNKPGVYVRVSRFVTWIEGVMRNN
Chain of plasmin (P00747 97-580 partner limits assumed, species assumed): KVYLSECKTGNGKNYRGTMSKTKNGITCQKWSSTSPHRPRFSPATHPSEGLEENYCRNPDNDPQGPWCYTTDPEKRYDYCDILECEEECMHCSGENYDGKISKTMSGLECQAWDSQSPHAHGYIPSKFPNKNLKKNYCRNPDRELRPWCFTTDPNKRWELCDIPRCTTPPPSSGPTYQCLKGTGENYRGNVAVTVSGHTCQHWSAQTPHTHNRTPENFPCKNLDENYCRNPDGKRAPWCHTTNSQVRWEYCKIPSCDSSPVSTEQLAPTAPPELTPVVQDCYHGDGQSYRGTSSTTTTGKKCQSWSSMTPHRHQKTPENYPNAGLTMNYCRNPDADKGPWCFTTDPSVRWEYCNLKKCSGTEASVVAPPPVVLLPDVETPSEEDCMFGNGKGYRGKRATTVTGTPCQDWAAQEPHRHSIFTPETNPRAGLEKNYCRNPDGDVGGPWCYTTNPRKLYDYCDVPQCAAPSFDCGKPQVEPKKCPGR
Method: as §1, §2, §3, §4, §5, §6
Various substrates were analyzed using thrombin and plasmin The assay was essentially performed as described in example 1. […]

thrombin [2] = target: T1, thrombin; test: Chemiluminescent substrate cleavage by purified thrombin (luciferase/ATP luminescence); conditions: 150 nM thrombin vs 40 nM plasmin in TBS buffer

SMILES: COCC(=O)NCCC(=O)NCC(=O)N[C@@H](CCCNC(=N)N)C(=O)Nc1ccc2nc(C3=N[C@@H](C(=O)O)CS3)sc2c1.O=C(O)C(F)(F)F [CH3O-acetyl-beta-Ala-Gly-Arg-aminoluciferine•TFA]
- RLU thrombin (thrombin [1]): 925567 RLU
- RLU thrombin/RLU plasmin (thrombin [1]): 3.1
- RLU plasmin (plasmin): 294631 RLU

SMILES: COCCOCCOCC(=O)NC(Cc1ccccc1)C(=O)NC(CCCNC(=N)N)C(=O)Nc1ccc2nc(C3=NC(C(=O)O)CS3)sc2c1.O=C(O)C(F)(F)F (stereo not drawn) [CH3O—(CH2CH2O)2-acetyl-Phe-Arg-aminoluciferine•TFA]
- RLU thrombin (thrombin [1]): 300946 RLU
- RLU thrombin/RLU plasmin (thrombin [1]): 0.40
- RLU plasmin (plasmin): 759874 RLU

SMILES: COCCOCCOCCOCCOCC(=O)NC(Cc1ccccc1)C(=O)NC(CCCNC(=N)N)C(=O)Nc1ccc2nc(C3=NC(C(=O)O)CS3)sc2c1.O=C(O)C(F)(F)F (stereo not drawn) [CH3O—(CH2CH2O)4-acetyl-Phe-Arg-aminoluciferine•TFA]
- RLU thrombin (thrombin [1]): 340768 RLU
- RLU thrombin/RLU plasmin (thrombin [1]): 0.27
- RLU plasmin (plasmin): 1282351 RLU

SMILES: COCCOCCOCCOCCOCC(=O)NCCC(=O)NCC(=O)N[C@@H](CCCNC(=N)N)C(=O)Nc1ccc2nc(C3=N[C@@H](C(=O)O)CS3)sc2c1.O=C(O)C(F)(F)F [CH3O—(CH2CH2O)4-acetyl-beta-Ala-Gly-Arg-aminoluciferine•TFA]
- RLU thrombin (thrombin [1]): 293198 RLU
- RLU thrombin/RLU plasmin (thrombin [1]): 2.2
- RLU plasmin (plasmin): 134983 RLU

SMILES: N=C(N)NCCC[C@H](NC(=O)CNC(=O)CNC(=O)OCc1ccccc1)C(=O)Nc1ccc2nc(C3=N[C@@H](C(=O)O)CS3)sc2c1.O=C(O)C(F)(F)F [Cbz-Gly-Gly-Arg-aminoluciferine•TFA]
- RLU thrombin (thrombin [1]): 771302 RLU
- RLU thrombin/RLU plasmin (thrombin [1]): 5.3
- RLU plasmin (plasmin): 146486 RLU

SMILES: N=C(N)NCCC[C@H](NC(=O)CNC(=O)CCN)C(=O)Nc1ccc2nc(C3=N[C@@H](C(=O)O)CS3)sc2c1.O=C(O)C(F)(F)F.O=C(O)C(F)(F)F [H-beta-Ala-Gly-Arg-aminoluciferine•2TFA]
- RLU thrombin (thrombin [1]): 292161 RLU
- RLU thrombin/RLU plasmin (thrombin [1]): 4.7
- RLU plasmin (plasmin): 62387 RLU

SMILES: COCCOCCOCC(=O)NCCC(=O)NCC(=O)NC(CCCNC(=N)N)C(=O)Nc1ccc2nc(C3=NC(C(=O)O)CS3)sc2c1.O=C(O)C(F)(F)F (stereo not drawn) [MeO—(CH2CH2O)2-acetyl-beta-Ala-Gly-Arg-aminoluciferin TFA salt]
- reactivity of thrombin and plasmin on the S1 substrate (FIG. 1a) (thrombin [2]): more susceptible for their respective enzyme

SMILES: COCCOCCOCC(=O)NCCC(=O)NCC(=O)N[C@@H](CCCNC(=N)N)C(=O)Nc1ccc2nc(C3=N[C@@H](C(=O)O)CS3)sc2c1 [MeO—(CH2CH2O)2-acetyl-beta-Ala-Gly-Arg-aminoluciferin TFA salt]
- RLU thrombin (thrombin [1]): 814171 RLU
- RLU thrombin/RLU plasmin (thrombin [1]): 3.2
- RLU plasmin (plasmin): 251299 RLU

SMILES: NCCCC[C@H](NC(=O)[C@H](Cc1ccccc1)NC(=O)[C@@H]1CCC(=O)N1)C(=O)Nc1ccc2nc(C3=N[C@@H](C(=O)O)CS3)sc2c1 [PyroGlu-Phe-Lys-aminoluciferine•TFA, pyroGlu-Phe-Lys-aminoluciferin TFA salt]
- RLU thrombin (thrombin [1]): 139546 RLU
- RLU thrombin/RLU plasmin (thrombin [1]): 0.07
- reactivity of thrombin and plasmin on the S2 substrate (FIG. 1b) (plasmin; 4 nM plasmin vs 15 nM thrombin in TBS buffer): more susceptible for their respective enzyme
- RLU plasmin (plasmin): 1999875 RLU
